Experimental data as given in ChEMBL document CHEMBL1201862, “PubChem BioAssay data set” (2004).
Active and inactive are the calls of the source.

Key:
Caspase-7 = biological target: T1, Caspase-7 (Homo sapiens, UniProt P55210); assay: human caspase-7 inhibitors, dose response, selectivity assay for caspase-6 inhibitor project, biochemical, DEVD-R110 fluorescence, cherry-pick (AID 743295)
T1 sequence (P55210 whole entry): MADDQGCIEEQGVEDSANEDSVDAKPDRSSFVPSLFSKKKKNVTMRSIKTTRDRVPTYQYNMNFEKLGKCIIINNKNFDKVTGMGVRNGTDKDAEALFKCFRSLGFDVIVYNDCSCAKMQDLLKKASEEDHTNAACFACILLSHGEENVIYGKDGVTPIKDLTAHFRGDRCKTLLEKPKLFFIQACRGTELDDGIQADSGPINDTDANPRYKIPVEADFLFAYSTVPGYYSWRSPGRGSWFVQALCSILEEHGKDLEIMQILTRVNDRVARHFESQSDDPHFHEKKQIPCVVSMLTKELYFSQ

Caspase-6 = biological target: T2, Caspase-6 (Homo sapiens, UniProt P55212); assay: human caspase-6 inhibitors, dose response, biochemical, VEID-R110 fluorescence, cherry-pick (AID 720632)
T2 sequence (P55212 whole entry): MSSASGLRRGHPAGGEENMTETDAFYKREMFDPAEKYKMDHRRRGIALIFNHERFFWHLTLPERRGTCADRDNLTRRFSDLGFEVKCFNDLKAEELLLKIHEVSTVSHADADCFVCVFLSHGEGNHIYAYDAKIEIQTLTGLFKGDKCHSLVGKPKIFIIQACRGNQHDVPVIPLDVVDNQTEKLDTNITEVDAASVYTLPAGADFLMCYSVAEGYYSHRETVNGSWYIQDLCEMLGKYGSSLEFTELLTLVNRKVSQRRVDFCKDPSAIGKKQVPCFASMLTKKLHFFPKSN

[1] = biological target: Peroxisome proliferator-activated receptor gamma/Nuclear receptor corepressor 2 (Homo sapiens, UniProt P37231+Q9Y618); type: functional
[2] = biological target: T3, Apoptotic protease-activating factor 1 (Homo sapiens, UniProt O14727); type: functional
T3 sequence (O14727 whole entry): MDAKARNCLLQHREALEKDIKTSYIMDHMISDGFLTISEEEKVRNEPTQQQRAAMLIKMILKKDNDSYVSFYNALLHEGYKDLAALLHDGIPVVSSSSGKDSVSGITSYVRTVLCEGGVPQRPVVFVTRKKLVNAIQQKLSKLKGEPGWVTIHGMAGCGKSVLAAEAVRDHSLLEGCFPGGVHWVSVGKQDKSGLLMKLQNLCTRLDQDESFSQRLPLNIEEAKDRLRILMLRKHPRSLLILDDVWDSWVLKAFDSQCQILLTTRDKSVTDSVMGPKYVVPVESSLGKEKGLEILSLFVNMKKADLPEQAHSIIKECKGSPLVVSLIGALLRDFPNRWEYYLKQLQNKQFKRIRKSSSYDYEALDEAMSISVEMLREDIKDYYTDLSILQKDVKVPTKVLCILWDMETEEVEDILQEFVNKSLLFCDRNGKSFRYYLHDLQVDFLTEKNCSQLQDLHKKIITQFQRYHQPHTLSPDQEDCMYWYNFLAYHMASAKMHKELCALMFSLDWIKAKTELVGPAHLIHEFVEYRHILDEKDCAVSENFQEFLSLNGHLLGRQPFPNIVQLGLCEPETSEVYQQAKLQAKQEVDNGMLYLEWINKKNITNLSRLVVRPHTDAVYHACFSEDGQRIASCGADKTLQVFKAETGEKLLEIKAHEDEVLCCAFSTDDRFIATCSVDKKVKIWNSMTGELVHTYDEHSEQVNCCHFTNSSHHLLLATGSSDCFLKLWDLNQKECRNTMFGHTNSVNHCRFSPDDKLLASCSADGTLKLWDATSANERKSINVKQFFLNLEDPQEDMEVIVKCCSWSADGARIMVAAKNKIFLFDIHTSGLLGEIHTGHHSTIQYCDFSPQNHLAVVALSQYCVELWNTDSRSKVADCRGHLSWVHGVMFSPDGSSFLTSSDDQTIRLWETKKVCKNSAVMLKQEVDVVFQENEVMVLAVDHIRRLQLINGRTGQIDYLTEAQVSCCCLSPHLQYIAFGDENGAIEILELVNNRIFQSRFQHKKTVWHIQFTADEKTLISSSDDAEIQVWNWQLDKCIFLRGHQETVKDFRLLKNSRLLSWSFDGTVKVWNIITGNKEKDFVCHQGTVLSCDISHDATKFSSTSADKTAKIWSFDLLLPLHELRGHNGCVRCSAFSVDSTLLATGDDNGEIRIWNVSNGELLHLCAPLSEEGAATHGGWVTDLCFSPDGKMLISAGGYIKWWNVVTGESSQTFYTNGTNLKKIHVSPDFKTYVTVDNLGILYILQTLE

[3] = biological target: Serine/threonine-protein kinase Nek4 (Homo sapiens, UniProt P51957); type: functional
[4] = biological target: Fibroblast growth factor receptor 3 (Homo sapiens, UniProt P22607); type: functional
[5] = biological target: Macrophage-stimulating protein receptor (Homo sapiens, UniProt Q04912); assay: Navigating the Kinome. Panel member name: MST1R; type: functional
[6] = biological target: Mitogen-activated protein kinase kinase kinase kinase 4 (Homo sapiens, UniProt O95819); type: functional
[7] = biological target: Tyrosine-protein kinase Lck (Homo sapiens, UniProt P06239); type: functional;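 also: lck was assayed as one member of a kinase panel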
[8] = biological target: Receptor tyrosine-protein kinase erbB-2 (Homo sapiens, UniProt P04626); assay: Navigating the Kinome. Panel member name: ERBB2; type: functional
[9] = biological target: Serine/threonine-protein kinase BRSK1 (Homo sapiens, UniProt Q8TDC3); type: functional;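 also: measured within a kinome-wide kinase panel, with the target listed as KIAA1811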
Serine/threonine-protein kinase BRSK1, sequence (Q8TDC3 whole entry): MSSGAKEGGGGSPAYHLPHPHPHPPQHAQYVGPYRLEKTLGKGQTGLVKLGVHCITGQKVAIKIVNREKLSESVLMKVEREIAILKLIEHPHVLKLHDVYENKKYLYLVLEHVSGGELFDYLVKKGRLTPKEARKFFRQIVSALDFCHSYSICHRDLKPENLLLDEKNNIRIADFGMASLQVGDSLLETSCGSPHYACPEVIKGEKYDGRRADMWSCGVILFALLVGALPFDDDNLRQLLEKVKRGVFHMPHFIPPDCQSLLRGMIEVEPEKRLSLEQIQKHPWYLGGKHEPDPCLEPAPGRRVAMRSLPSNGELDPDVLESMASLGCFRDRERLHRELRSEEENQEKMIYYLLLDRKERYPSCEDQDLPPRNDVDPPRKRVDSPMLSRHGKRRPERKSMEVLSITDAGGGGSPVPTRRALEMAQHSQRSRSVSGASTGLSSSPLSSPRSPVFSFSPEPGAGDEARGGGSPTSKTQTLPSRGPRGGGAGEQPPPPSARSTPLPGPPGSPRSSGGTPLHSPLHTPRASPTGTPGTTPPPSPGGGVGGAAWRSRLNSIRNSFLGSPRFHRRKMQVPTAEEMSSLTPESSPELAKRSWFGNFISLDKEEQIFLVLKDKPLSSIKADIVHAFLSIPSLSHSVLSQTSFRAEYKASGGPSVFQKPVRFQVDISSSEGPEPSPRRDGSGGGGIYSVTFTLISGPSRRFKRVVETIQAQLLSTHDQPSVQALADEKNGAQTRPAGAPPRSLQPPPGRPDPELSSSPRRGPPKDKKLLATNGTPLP

Serine/threonine-protein kinase Nek4, sequence (P51957 whole entry): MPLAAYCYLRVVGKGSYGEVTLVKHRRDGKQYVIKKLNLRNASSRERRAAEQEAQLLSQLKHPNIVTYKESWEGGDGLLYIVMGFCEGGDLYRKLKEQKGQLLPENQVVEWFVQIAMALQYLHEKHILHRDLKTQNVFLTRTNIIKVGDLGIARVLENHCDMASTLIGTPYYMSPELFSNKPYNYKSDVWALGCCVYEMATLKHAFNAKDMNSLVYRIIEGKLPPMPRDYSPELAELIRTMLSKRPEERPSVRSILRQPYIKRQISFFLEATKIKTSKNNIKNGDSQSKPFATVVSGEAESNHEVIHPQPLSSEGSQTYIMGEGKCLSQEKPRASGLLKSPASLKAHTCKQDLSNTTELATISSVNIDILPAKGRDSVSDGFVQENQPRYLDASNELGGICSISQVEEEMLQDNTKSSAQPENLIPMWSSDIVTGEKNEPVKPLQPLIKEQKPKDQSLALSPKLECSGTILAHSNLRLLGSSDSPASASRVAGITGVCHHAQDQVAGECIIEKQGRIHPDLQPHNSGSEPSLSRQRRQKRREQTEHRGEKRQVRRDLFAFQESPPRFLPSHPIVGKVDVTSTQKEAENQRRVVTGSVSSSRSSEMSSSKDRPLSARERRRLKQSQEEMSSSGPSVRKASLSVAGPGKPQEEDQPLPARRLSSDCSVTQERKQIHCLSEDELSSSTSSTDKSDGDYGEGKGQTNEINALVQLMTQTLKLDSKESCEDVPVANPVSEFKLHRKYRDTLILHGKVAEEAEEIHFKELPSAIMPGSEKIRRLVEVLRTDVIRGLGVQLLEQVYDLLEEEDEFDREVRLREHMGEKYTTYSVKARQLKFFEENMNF
Macrophage-stimulating protein receptor, sequence (Q04912 25-304 limits assumed): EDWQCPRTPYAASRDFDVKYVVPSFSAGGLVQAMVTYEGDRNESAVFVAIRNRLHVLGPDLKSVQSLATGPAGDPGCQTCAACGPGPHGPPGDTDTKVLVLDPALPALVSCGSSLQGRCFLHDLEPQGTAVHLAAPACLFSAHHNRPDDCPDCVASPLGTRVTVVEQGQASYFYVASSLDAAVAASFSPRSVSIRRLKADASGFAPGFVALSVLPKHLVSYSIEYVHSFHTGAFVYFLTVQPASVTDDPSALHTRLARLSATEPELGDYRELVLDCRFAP
Macrophage-stimulating protein receptor, sequence (Q04912 310-1400 limits assumed): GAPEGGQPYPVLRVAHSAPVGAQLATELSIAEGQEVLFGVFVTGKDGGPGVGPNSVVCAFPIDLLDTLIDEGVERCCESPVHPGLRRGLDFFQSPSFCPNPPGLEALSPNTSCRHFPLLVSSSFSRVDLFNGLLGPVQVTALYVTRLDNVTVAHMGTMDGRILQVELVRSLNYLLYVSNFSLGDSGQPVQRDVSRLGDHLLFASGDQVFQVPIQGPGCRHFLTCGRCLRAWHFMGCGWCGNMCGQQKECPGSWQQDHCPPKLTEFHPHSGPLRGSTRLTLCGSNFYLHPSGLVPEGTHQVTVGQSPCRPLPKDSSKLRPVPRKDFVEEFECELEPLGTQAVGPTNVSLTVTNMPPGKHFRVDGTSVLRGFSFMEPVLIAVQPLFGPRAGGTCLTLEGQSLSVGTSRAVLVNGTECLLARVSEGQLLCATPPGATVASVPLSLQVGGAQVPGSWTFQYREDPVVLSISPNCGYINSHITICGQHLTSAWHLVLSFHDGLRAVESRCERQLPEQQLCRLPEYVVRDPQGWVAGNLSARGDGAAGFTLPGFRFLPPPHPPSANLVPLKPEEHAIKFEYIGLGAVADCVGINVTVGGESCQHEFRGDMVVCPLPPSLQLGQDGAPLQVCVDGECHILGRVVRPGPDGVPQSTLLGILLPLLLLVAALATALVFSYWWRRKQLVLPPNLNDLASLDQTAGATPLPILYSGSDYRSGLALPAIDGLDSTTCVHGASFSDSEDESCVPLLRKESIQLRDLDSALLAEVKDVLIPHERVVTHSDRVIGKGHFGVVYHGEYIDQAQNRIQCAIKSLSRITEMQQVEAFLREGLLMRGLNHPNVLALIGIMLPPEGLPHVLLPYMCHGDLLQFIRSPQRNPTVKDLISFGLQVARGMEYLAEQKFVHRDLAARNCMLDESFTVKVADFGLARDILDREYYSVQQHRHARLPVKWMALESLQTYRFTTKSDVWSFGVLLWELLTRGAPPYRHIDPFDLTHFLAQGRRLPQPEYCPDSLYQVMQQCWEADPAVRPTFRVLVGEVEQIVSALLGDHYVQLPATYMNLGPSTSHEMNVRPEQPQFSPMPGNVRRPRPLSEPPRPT
Tyrosine-protein kinase Lck, sequence (P06239 whole entry): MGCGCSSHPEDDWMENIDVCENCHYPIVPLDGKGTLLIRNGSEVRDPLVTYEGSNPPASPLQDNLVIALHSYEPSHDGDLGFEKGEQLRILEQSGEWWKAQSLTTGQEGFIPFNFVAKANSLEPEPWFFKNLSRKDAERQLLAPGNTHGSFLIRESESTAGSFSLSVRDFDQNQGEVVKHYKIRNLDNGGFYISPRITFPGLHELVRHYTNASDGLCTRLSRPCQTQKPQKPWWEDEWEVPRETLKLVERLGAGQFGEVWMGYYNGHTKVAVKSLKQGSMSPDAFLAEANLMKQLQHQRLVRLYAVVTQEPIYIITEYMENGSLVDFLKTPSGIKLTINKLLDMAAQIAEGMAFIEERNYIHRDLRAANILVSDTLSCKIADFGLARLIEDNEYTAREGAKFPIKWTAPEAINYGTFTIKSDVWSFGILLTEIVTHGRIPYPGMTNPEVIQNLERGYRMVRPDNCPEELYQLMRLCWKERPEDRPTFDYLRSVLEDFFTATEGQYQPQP
Fibroblast growth factor receptor 3, sequence (P22607 whole entry): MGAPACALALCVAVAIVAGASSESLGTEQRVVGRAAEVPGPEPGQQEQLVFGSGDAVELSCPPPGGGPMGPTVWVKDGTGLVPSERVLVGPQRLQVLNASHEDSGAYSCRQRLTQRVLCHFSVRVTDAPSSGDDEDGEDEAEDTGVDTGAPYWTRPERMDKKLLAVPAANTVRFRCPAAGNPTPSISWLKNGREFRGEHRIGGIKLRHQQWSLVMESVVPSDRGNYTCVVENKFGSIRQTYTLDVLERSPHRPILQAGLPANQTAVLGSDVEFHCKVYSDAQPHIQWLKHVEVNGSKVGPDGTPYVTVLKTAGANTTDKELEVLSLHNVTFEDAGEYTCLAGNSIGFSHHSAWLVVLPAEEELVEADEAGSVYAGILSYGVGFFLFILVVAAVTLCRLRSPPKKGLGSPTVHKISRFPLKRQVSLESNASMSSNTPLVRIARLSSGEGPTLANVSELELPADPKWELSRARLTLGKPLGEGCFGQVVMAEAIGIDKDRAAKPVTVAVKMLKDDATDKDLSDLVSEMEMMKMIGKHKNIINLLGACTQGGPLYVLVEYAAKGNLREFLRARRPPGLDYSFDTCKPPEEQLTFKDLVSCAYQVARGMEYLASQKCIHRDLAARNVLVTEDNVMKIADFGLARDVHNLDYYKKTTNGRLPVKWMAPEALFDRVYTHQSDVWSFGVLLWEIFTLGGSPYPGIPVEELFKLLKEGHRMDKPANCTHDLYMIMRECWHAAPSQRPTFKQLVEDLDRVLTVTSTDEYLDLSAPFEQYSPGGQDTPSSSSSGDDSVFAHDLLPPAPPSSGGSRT

Compound: Cc1c(NC(=O)C(C)OC(=O)c2ccc([N+](=O)[O-])s2)c(=O)n(-c2ccccc2)n1C (stereo unspecified)
- AC50 (Caspase-7): 17.5 µM (active)
- AC50 (Caspase-6): 4.82 µM (active)

Compound: COc1cc(Br)c(C(=O)c2nccc3cc(OC)c(OC)cc23)cc1OC
- IC50 [1]: > 39.8 µM (not active)
- IC50 [2]: 7.37 µM (active)

Compound: CC(N)C1CCC(C(=O)Nc2ccnc3[nH]ccc23)CC1 (stereo unspecified)
- Ki [3]: > 6.31 µM (inactive)
- Ki [4]: > 2 µM (inactive)
- Ki [5]: 2 µM (active)
- Ki [6]: > 2.51 µM (inactive)
- Ki [7]: > 3.98 µM (inactive)
- Ki [8]: > 1.58 µM (inactive)
- Ki [9]: 3.98 µM (active)
